Data from ChEMBL document CHEMBL4622849, “Discovery of ethyl ketone-based HDACs 1, 2, and 3 selective inhibitors for HIV latency reactivation” (Bioorg Med Chem Lett, 2020).

Columns and labels:
Assay type in all cases: ADME, organism-based
Details in all cases: in vivo
[1] = Cmax in Wistar Han rat at 5 mg/kg, po; set-up: dose 5 mg/kg, route oral
[2] = Half life in Wistar Han rat at 2 mg/kg, iv or 5 mg/kg, po
[3] = Clearance in Wistar Han rat at 2 mg/kg, iv or 5 mg/kg, po
[4] = AUC in Wistar Han rat at 5 mg/kg, po
[5] = Oral bioavailability in Wistar Han rat at 5 mg/kg

Cmax [1]: 260 nM | half-life [2]: 3 h | clearance [3]: 7.2 mL/min/kg | AUC [4]: 1.13 µM·h | bioavailability [5]: 5.8%
Structure (SMILES): CCC(=O)CCCCC[C@H](NC(=O)[C@H]1CC12CCN(CC)CC2)c1ncc(-c2cc3ccccc3nc2OC)[nH]1
